Source: paper PMC9476706, “Integrating pharmacokinetics and network analysis to investigate the mechanism of Moutan Cortex in blood-heat and blood stasis syndrome” (Chinese Medicine, 2022)

How the values were obtained:
[1] = system: APTT; parameters: method as in doi:10.5246/jcps.2018.09.062; details: cited from earlier work
[2] = Pharmacokinetic study of nine absorbed components in rat serum after oral RMC extract (UHPLC-DAD); details: for AUC / Cmax / MRT / half-life / Tmax: male, Sprague-Dawley, rat, serum, po, 10 mL/kg, oral RMC extract 10 mL/kg (equal to 6 g/mL of RMC) once a day for 7 days, n = 6; for time after which the compound was not detected: BHS-RMC rats;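 for all read-outs here: BHS model made by subcutaneous yeast suspension then two adrenaline injections with ice-water immersion, normal rats given saline instead, serum analytes quantified by UHPLC-DAD at 254 nm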
Method: Twenty-four male Sprague–Dawley rats (weighing 300 ± 20 g) were purchased from Animal Experiment Center, Guangdong Academy of Medical Sciences (Certificate no. SCXK2013-0002). The rats were kept in an environmentally controlled breeding room at a temperature of 22 ± 2 °C and a relative humidity of 55 ± 10% for 1 week before starting the experiments. They were fed with standard laboratory food and water. Both the animal’s care and the study protocol were conducted according to the National Institutes of Health Guide for the Care and Use of Laboratory Animals, and followed the guidelines of the Ethics Committee of Guangdong Pharmaceutical University.
The rats were randomly divided into following four groups: normal groups (Normal groups), BHS model groups (BHS groups), normal group administrated with RMC extraction (N-RMC group), BHS group administrated with RMC extraction (BHS-RMC group), respectively. N-RMC group and BHS-RMC group rats were respectively orally administrated with RMC extraction (equal to 6 g/mL of RMC) for continuous 7 days at a dose of 10 mL/kg, once a day, 1 hour after the sixth day of administration. The rats in BHS groups and BHS-RMC group were subcutaneously injected with 10% aqueous suspension of yeast (10 mL/kg) and then subcutaneously injected with 0.1 mg/mL adrenaline hydrochloride solution twice (at a dose of 0.8 mL/kg, 4 h apart) while body temperature remained relatively steady high. Those rats were soaked in ice-water for 5 min keeping their heads outside surface between two subcutaneous injections of adrenaline hydrochloride solution [39, 40]. At the same time, the normal groups and N-RMC group rats were injected with the same dose of saline (10 mL/kg) subcutaneously. All rats were fasted for 12 h but free for water before taking the blood. On the seventh day, 0.3 mL blood samples were collected from fossa orbitalis vein at the time point of 0.083, 0.25, 0.5, 0.75, 1, 2, 3, 4, 6, 8, 10, 12 and 24 h after oral administration. All blood samples were immediately centrifuged at 13,680 (× g) for 10 min at 4 °C and the serum samples were obtained and stored at −80 °C until analysis.
Firstly, 100 μL serum was spiked with 10 μL IS working solution to mix evenly, then 1 mL methanol was added to protein precipitation, and centrifuged at 1520 (× g) for 10 min at 4 °C. Secondly, the supernatant was collected with a clean tube carefully and filtered through 0.22 μm microporous filter head. Thirdly, the filtrate was evaporated to dryness under a stream of nitrogen at 40 °C. Finally, the residue was dissolved in 100 μL methanol and 10 μL of aliquot was injected into UHPLC-DAD system for analysis.
The chromatography experiment was carried out using UPLC system (Thermo Fisher Scientific, USA). Chromatographic conditions were according to the paper published by our research group [37]. Column: Acquity UPLC® BEH Shield RP18 Column (2.1 mm × 100 mm, 1.7 μm, Waters, USA). The column temperature was maintained at 30 °C. Mobile phase: Acetonitrile (A) and 0.1% (v/v) formic acid in water (B). The gradient conditions: 0–10 min, 5–15% A; 10–20 min, 15–35% A; 20–30 min, 35–95% A; 30–32 min, 95% A. The samples were kept at 4 °C in the auto-sampler. Flow rate and sample size, 0.2 mL/min and 2 μL; column temperature and detection wavelength, 30 °C and 254 nm.
The concentrations of nine components of all samples were processed by PKSolver pharmacokinetics software. Statistical comparisons among groups were performed with GraphPad Prism 8 using a One-Way ANOVA analysis. Data expressed as mean ± SD and a p value ≤ 0.05 was considered to be statistically significant.

[3] = system: F2; assay: F2 expression in TNF-α induced HUVECs (ELISA, RT-qPCR); assay type: cell-based, Human; details: HUVECs + 25 ng/mL TNF-α, 8 h, versus model group; for F2 protein expression: paeonol 50, paeoniflorin 500, quercetin 1, oxypaeoniflorin 500 μg/mL
Method: (§1) After three or four passages, the HUVECs were digested with 0.25% trypsin and seeded in a 6-well plate with a density of 1 × 10^5 cells/mL for ELISA analysis and RT-qPCR. […] Afterwards, take the supernatant and measure according to the ELISA kit, and detect the OD value at the wavelength of 450. […] ChamQTMUniversalSYBR qPCR Master Mix (Vazyme Biotech Co., Ltd, Q711-02) was performed on a Real-time PCR System.

[4] = system: F7; assay: F7 expression in TNF-α induced HUVECs (ELISA, RT-qPCR); assay type: cell-based, Human; details: HUVECs + 25 ng/mL TNF-α, 8 h, versus model group; for F7 protein expression: paeonol 50, paeoniflorin 500, quercetin 1, oxypaeoniflorin 500 μg/mL
Method: as §1

[5] = system: F10; assay: F10 expression in TNF-α induced HUVECs (ELISA, RT-qPCR); assay type: cell-based, Human; details: HUVECs + 25 ng/mL TNF-α, 8 h; paeonol 50, paeoniflorin 500, quercetin 1, oxypaeoniflorin 500 μg/mL; versus model group
Method: as §1

[6] = system: MAPK10; assay: MAPK10 mRNA expression in TNF-α induced HUVECs (RT-qPCR); assay type: cell-based, Human; details: HUVECs + 25 ng/mL TNF-α, 8 h, paeonol 50, paeoniflorin 500, quercetin 1, oxypaeoniflorin 500 μg/mL, versus model group
Method: as §1

[7] = system: APTT, PT and TT; assay: Coagulation test (APTT, PT, TT) in rabbit plasma; details: for APTT: 10 μL solution, paeoniflorin 250, oxypaeoniflorin 500, quercetin 1, paeonol 50 μg/mL, blank 13.63 ± 0.49, n = 3; for effect on PT compared with blank / effect on TT compared with blank / effect on prolonging APTT compared with blank: in words
Method: New Zealand white rabbits, after being fasted but with free access to water for 8 h, were anesthetized by intraperitoneal injection of 10.0% chloral hydrate at 0.3 mL/100 g. The blood collected from the carotid artery was anticoagulated with 3.8% sodium citrate (blood and dosage volume ratio of 9:1), and transferred to a vacuum blood-collection tube, which was then slowly inverted and mixed for 3 to 4 times, and centrifuged at 860 (× g) for 10 min to obtain the supernatant. […] Whereafter, 10 μL of monomer solution was added under the kit instructions to determine APTT, PT and TT using coagulation method.

[8] = system: AKT; assay: AKT expression in TNF-α induced HUVECs (RT-qPCR); assay type: cell-based, Human; details: HUVECs + 25 ng/mL TNF-α, 8 h, oxypaeoniflorin 500 μg/mL, versus model group
Method: as §1

[9] = BHS-RMC versus N-RMC rats, oral RMC extract
[10] = T1/2, BHS-RMC group (BHS model rats)
[11] = T1/2, N-RMC group (normal rats)

Compound | AUC ([2]; BHS-RMC group (BHS model rats)) [µg·h/mL] | AUC ([2]; N-RMC group (normal rats)) [µg·h/mL] | Cmax ([2]; BHS-RMC group (BHS model rats)) [µg/mL] | Cmax ([2]; N-RMC group (normal rats)) [µg/mL] | MRT ([2]; BHS-RMC group (BHS model rats)) [h] | MRT ([2]; N-RMC group (normal rats)) [h] | half-life [2, 10] [h] | half-life [2, 11] [h] | Tmax ([2]; BHS-RMC group (BHS model rats)) [h] | Tmax ([2]; N-RMC group (normal rats)) [h] | Cmax increase in BHS-RMC over N-RMC [2, 9] [%] | F2 protein expression [3] | F7 protein expression [4] | F10 protein expression [5] | MAPK10 mRNA expression [6] | APTT [7] [s] | effect on PT compared with blank [7] | effect on TT compared with blank [7] | effect on prolonging APTT compared with blank [7] | further results
O=C(O)c1ccccc1 [Benzoic acid, benzoic acid] | 2320 ± 71.3 | 1880 ± 217 | 213 ± 5.26 | 144 ± 4.48 | 13.3 ± 0.79 | 17 ± 2.76 | – | – | 3 | 4 | 49 | – | – | – | – | – | – | – | – | –
O=C(O)c1cc(O)c(O)c(O)c1 [Gallic acid, gallic acid] | 1070 ± 72.9 | 1020 ± 26.6 | 180 ± 11.1 | 127 ± 2.9 | 10 ± 0.96 | 17.3 ± 0.8 | 6.33 ± 0.45 | 10.8 ± 0.87 | 1 | – | 42 | – | – | – | – | – | – | – | – | AUC increase in BHS-RMC over N-RMC [2, 9]: 5%
O=c1c(O)c(-c2ccc(O)c(O)c2)oc2cc(O)cc(O)c12 [Quercetin, quercetin] | 10000 | 7340 ± 166 | 739.9 ± 4.17 | 643 ± 19.8 | 20.4 ± 0.66 | 16.6 ± 0.56 | 15.5 ± 0.54 | 9.97 ± 0.35 | 4 | 4 | 15 | significantly declined | significantly declined | significantly declined | significant decrease | 15.2 ± 0.387 | no significant difference | tendency of prolonging | significant effect | –
oxypaeoniflorin | – | – | – | – | – | – | – | – | – | – | – | – | significantly declined | significantly declined | significant decrease | 15.63 ± 0.45 | no significant difference | tendency of prolonging | significant effect | expression of AKT [8]: could decrease

Now from value to compound, other results behind:

AUC ([2]; BHS-RMC group (BHS model rats)) [µg·h/mL] | AUC ([2]; N-RMC group (normal rats)) [µg·h/mL] | Cmax ([2]; BHS-RMC group (BHS model rats)) [µg/mL] | Cmax ([2]; N-RMC group (normal rats)) [µg/mL] | MRT ([2]; BHS-RMC group (BHS model rats)) [h] | MRT ([2]; N-RMC group (normal rats)) [h] | half-life [2, 10] [h] | half-life [2, 11] [h] | Tmax ([2]; BHS-RMC group (BHS model rats)) [h] | Tmax ([2]; N-RMC group (normal rats)) [h] | Compound | Cmax increase in BHS-RMC over N-RMC [2, 9] [%] | F2 protein expression [3] | F7 protein expression [4] | F10 protein expression [5] | MAPK10 mRNA expression [6] | APTT [7] [s] | effect on PT compared with blank [7] | effect on TT compared with blank [7] | effect on prolonging APTT compared with blank [7] | further results
757 ± 8.72 | 660 ± 29.9 | 134 ± 3.26 | 116 ± 2.12 | 14.1 ± 1.07 | 6.9 ± 0.68 | 19 ± 1.78 | 4.73 ± 0.29 | 0.75 | 0.75 | Cc1oc2c(O)cccc2c(=O)c1O [3,8-Dihydroxy-2-methylchromone, 3,8-dihydroxy-2-methylchromone] | 16 | – | – | – | – | – | – | – | – | effect on APTT [1]: significantly extend
741 ± 20.3 | 1564 ± 4.63 | 111 ± 7.25 | 413.2 ± 2.01 | 7.47 ± 0.48 | 4.55 ± 0.03 | 7.33 ± 2.1 | 3.2 ± 0.03 | 0.75 | 3 | O=Cc1ccc(CO)o1 [5-HMF, 5-hydroxymethylfurfural] | – | – | – | – | – | – | – | – | – | –
39.9 ± 1.34 | 22.8 ± 1.34 | 2.16 ± 0.11 | 6.35 ± 0.53 | 27.1 ± 1.16 | 7.91 ± 0.56 | 17.9 ± 0.84 | 4.93 ± 0.23 | 1 | 0.75 | COC(=O)c1ccc(O)cc1 [Methylparaben, methyl paraben] | – | – | – | – | – | – | – | – | – | –
298 ± 7.6 | 1450 ± 62.3 | 84.2 ± 1.99 | 201.6 ± 1.86 | 5.06 ± 0.22 | 15.5 ± 0.94 | 3.6 ± 0.31 | 9.75 ± 0.47 | 0.75 | – | C[C@@]12C[C@@]3(O)O[C@@H](O1)[C@]1(COC(=O)c4ccccc4)[C@H]3C[C@@]12O[C@@H]1O[C@H](CO)[C@@H](O)[C@H](O)[C@H]1O [Paeoniflorin, paeoniflorin] | – | significantly declined | significantly declined | significantly declined | significant decrease | 15.07 ± 0.06 | no significant difference | tendency of prolonging | significant effect | time after which the compound was not detected ([2]; oral RMC extract): 12 h
45.5 ± 0.83 | 107 ± 1.23 | 10.4 ± 0.23 | 11.8 ± 0.13 | 4.63 ± 0.12 | 12.1 ± 0.17 | 4.37 ± 0.15 | 7.84 ± 0.08 | 0.75 | 0.75 | COc1ccc(C(C)=O)c(O)c1 [Paeonol, paeonol] | – | significantly declined | significantly declined | significantly declined | significant decrease | 17.23 ± 0.35 | no significant difference | tendency of prolonging | significant effect | F2 mRNA expression ([3]; paeonol 50 μg/mL, RT-qPCR): no effects; F7 mRNA expression ([4]; paeonol 50 μg/mL, RT-qPCR): no effects; time after which the compound was not detected ([2]; oral RMC extract): 8 h; shape of plasma concentration-time profile ([2]; oral RMC extract, both normal and model rats): bimodal (double peak) phenomenon
